# Laboratory results reported in patent US20090246152A1, “NARACTIN COMPOSITIONS FOR THE INHIBITION OF REACTIVE OXYGEN SPECIES” (Nu Skin International, Inc., priority 2008, published 2009).
# What was measured:
# arNOX [1] = assay: arNOX inhibition, superoxide-dependent reduction of ferric cytochrome c with serum or buffy coats (Table 1); type: biochemical; details: 25 μg/ml
# Procedure: Superoxide Production By Buffy Coats: Buffy coats, a mixture of lymphocytes and platelets. Such buffy coats are commercially available from, for example, Rockland ImmunoChemicals (Gilbertsville, Pa.). The blood samples were maintained at 4° C. prior to collection and assay. Ca. 10^7 cells were added to each assay. Cell numbers were determined using a hemocytometer.
# Reduction of ferric cytochrome c by superoxide was employed as a standard measure of superoxide formation (Mayo, L. A. and Cumutte, J. (1990) Meth. Enzyme. 186, 567-575. 7. Butler, J, Koppenol, W. H. and Margollash, E. (1982) J. Biol. Chem. 257, 10747). This is a widely accepted method when coupled to superoxide dismutase inhibition for the measurement of superoxide generation. The assay consists of 150 μl serum or 40 μl buffy coats in PBSG buffer (8.06 g NaCl, 0.2 g KCl, 0.18 g Na2HPO4, 0.26 g KH2PO4, 0.13 g CaCl2, 0.1 g MgCl2 1.35 g glucose dissolved in 1000 ml deionized water, adjusted to pH 7.4, filtered and stored at 4° C.) Rates were determined using an SLM Aminco DW-2000 spectrophotometer (Milton Roy, Rochester, N.Y., USA) in the dual wave length mode of operation with continuous measurements over 1 min every 1.5 min. After 45 min, test compounds were added and the reaction was continued for 45 min. After 45 min. a millimolar extinction coefficient of […] was used for reduced ferricytochrome c. Extracts were made of the compounds in water unless otherwise indicated.
# arNOX [2] = assay: arNOX activity of saliva (person), ferricytochrome c reduction; type: biochemical, human; details: for inhibition of arNOX activity of saliva: 1 mg/ml, saliva from person; for augmentation of low activity N. tazetta powder: FIGS. 1a and 1b; for arNOX inhibition (result in words): substance or extract alone
# Procedure: Of the mixture, 60 μl was added to at total of three ml of assay mixture containing saliva as the arNOX activity source.
# The assay consists of 150 μl serum or 40 μl buffy coats in PBSG buffer (8.06 g NaCl, 0.2 g KCl, 0.18 g Na2HPO4, 0.26 g KH2PO4, 0.13 g CaCl2, 0.1 g MgCl2 1.35 g glucose dissolved in 1000 ml deionized water, adjusted to pH 7.4, filtered and stored at 4° C.) Rates were determined using an SLM Aminco DW-2000 spectrophotometer (Milton Roy, Rochester, N.Y., USA) in the dual wave length mode of operation with continuous measurements over 1 min every 1.5 min. After 45 min, test compounds were added and the reaction was continued for 45 min. After 45 min. a millimolar extinction coefficient of 19.1 cm^−1 was used for reduced ferricytochrome c. Extracts were made of the compounds in water unless otherwise indicated.
Structure (SMILES),ArNOX ACTIVITY % OF NO ADDITION (arNOX [1]; Ethanol) [%],inhibition of arNOX activity of saliva (arNOX [2]),augmentation of low activity N. tazetta powder (arNOX [2]),arNOX inhibition (result in words) (arNOX [2]),other results
"CC1=C(/C=C/C(C)=C/C=C/C(C)=C/C=C/C=C(C)/C=C/C=C(C)/C=C/C2=C(C)C(=O)[C@@H](O)CC2(C)C)C(C)(C)C[C@H](O)C1=O [Natural astaxanthin, astaxanthin]",62,–,–,–,–
"O=C(NO)c1ccccc1O [SHAM, salicyl hydroxamate]",–,greater than 90%,notably decreased arNOX activity,–,"arNOX activity after addition to N. tazetta powder extract (arNOX [2]; saliva of person, FIG. 1a): nearly complete inhibition; concentration at which inhibition of arNOX activity is largely complete (arNOX [2]; saliva, FIG. 7): 11 mg/mL"
"O=C(O)c1ccccc1O [Salicylic acid, salicylic acid]",–,about 50%,–,found to inhibit arNOX activity,–
"CC(=O)Oc1ccccc1C(=O)O [aspirin, reference compound]",–,–,–,did not inhibit arNOX activity,–
OCc1ccccc1O[C@@H]1O[C@H](CO)[C@@H](O)[C@H](O)[C@H]1O [salicin],–,–,notably decreased arNOX activity,active as a single agent,"augmentation of arNOX inhibition of mixtures of Schizandra chinensis powder and N. tazetta powder/extract (arNOX [2]; 1 mg/ml salicin, FIGS. 10a, 10b): active in augmenting the arNOX inhibition; active concentration relative to SHAM (Naractin 1) or salicylic acid (Naractin 2) (arNOX [2]; FIG. 9): active at a ten-fold lower concentration; concentration at which maximum inhibition of arNOX activity is achieved (arNOX [2]; saliva, FIG. 9): 1 mg/mL"
CC1=C(/C=C/C(C)=C/C=C/C(C)=C/C=C/C=C(C)/C=C/C=C(C)/C=C/C2=C(C)CCCC2(C)C)C(C)(C)CCC1 [β-Carotene],68,–,–,–,ArNOX ACTIVITY % OF NO ADDITION (arNOX [1]; Water): 28%
